Where a SMILES comes first, the peptide text is derived from it.
What was measured:
[1] = target: T1, Dickkopf-related protein 1 (Homo sapiens, UniProt O94907); test: Inhibition of biotin-labeled human recombinant DKK1 assessed as reduction in DKK1 interaction with LRP-6/Fc incubated overnight by chemiluminescence based Alpha-screen assay
T1 sequence (O94907 whole entry): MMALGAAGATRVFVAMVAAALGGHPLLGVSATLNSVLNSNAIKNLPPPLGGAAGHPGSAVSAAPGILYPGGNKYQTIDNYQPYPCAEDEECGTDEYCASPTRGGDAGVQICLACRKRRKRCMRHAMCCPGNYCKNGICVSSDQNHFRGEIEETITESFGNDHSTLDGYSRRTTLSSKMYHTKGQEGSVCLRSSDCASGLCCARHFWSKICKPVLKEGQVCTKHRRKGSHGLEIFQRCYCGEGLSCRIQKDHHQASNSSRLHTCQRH

[2] = target: T2, Dickkopf WNT-signaling pathway inhibitor 1 (Rattus norvegicus, UniProt A6I0Z0); test: Inhibition of biotin-labeled rat recombinant DKK1 assessed as reduction in DKK1 interaction with LRP-6/Fc incubated overnight by chemiluminescence based Alpha-screen assay
T2 sequence (A6I0Z0 whole entry): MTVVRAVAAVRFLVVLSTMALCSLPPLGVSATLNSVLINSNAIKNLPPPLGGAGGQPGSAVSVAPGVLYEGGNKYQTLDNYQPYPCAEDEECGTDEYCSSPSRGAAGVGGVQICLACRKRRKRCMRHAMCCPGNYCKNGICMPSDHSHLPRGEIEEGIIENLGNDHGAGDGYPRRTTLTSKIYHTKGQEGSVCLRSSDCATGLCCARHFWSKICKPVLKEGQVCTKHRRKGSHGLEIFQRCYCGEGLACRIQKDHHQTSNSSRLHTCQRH

Structure (SMILES): CC[C@H](C)[C@H](NC(=O)[C@H](CC(C)C)NC(=O)[C@@H]1CCCN1C(=O)[C@H](Cc1ccccc1)NC(=O)[C@H](CS)NC(=O)[C@H](CCSC)NC(=O)[C@H](CCCCN)NC(=O)[C@H](CC(=O)O)NC(=O)[C@H](C)NC(=O)[C@H](CS)NC(=O)[C@H](CCSC)NC(=O)[C@H](Cc1ccccc1)NC(=O)[C@H](CCC(=O)O)NC(=O)[C@H](CC(N)=O)NC(=O)[C@H](CO)NC(=O)[C@@H]1CCCN1C(=O)[C@@H](N)CS)C(=O)N[C@@H](Cc1ccccc1)C(=O)N[C@@H](CC(C)C)C(=O)N[C@@H](CS)C(=O)N[C@@H](CC(=O)O)C(=O)NCC(=O)N[C@@H](CCC(=O)O)C(=O)N[C@@H](CC(N)=O)C(=O)N[C@@H](CC(=O)O)C(=O)N[C@@H](CS)C(=O)N[C@@H](CCC(=O)O)C(=O)N[C@@H](CC(=O)O)C(=O)NCC(=O)N[C@@H](CO)C(=O)N[C@@H](CC(=O)O)C(=O)N[C@@H](CCC(=O)O)C(=O)N[C@H](C(=O)N[C@@H](CC(=O)O)C(=O)N[C@@H](CS)C(=O)N1CCC[C@H]1C(=O)N[C@@H](CO)C(=O)N[C@@H](CCCNC(=N)N)C(=O)N[C@H](C(=O)O)[C@@H](C)O)C(C)C (H-CPSNEFMCADKMCFPLIFLCDGENDCEDGSDEVDCPSRT-OH)
- IC50 [1]: 40 to 80 nM
- IC50 [2]: 40 to 80 nM

Structure (SMILES): CC[C@H](C)[C@H](NC(=O)[C@H](CCCCN)NC(=O)[C@H](CC(=O)O)NC(=O)[C@@H]1CCCN1C(=O)[C@H](CS)NC(=O)[C@H](CCSC)NC(=O)[C@H](Cc1ccccc1)NC(=O)[C@H](CCC(=O)O)NC(=O)[C@H](CC(N)=O)NC(=O)[C@H](CO)NC(=O)[C@@H]1CCCN1C(=O)[C@@H](N)CS)C(=O)N[C@@H](CS)C(=O)N[C@@H](Cc1ccccc1)C(=O)N1CCC[C@H]1C(=O)N[C@@H](CC(C)C)C(=O)N[C@@H](CO)C(=O)N[C@@H](Cc1ccccc1)C(=O)N[C@@H](CC(C)C)C(=O)N[C@@H](CS)C(=O)N[C@@H](CC(=O)O)C(=O)NCC(=O)N[C@@H](CCC(=O)O)C(=O)N[C@@H](CC(N)=O)C(=O)N[C@@H](CC(=O)O)C(=O)N[C@@H](CS)C(=O)N[C@@H](CCC(=O)O)C(=O)N[C@@H](CC(=O)O)C(=O)NCC(=O)N[C@@H](CO)C(=O)N[C@@H](CC(=O)O)C(=O)N[C@@H](CCC(=O)O)C(=O)N[C@@H](CC(=O)O)C(=O)N[C@@H](Cc1ccc(O)cc1)C(=O)N[C@@H](CS)C(=O)N1CCC[C@H]1C(=O)N[C@@H](CO)C(=O)N[C@@H](CCCNC(=N)N)C(=O)N[C@H](C(=O)O)[C@@H](C)O (H-CPSNEFMCPDKICFPLSFLCDGENDCEDGSDEDYCPSRT-OH)
- IC50 [1]: ≤ 1 nM
- IC50 [2]: ≤ 1 nM

Structure (SMILES): CSCC[C@H](NC(=O)[C@H](CCCCN)NC(=O)[C@H](CC(=O)O)NC(=O)[C@@H]1CCCN1C(=O)[C@H](CS)NC(=O)[C@H](CCSC)NC(=O)[C@H](Cc1ccccc1)NC(=O)[C@H](CCC(=O)O)NC(=O)[C@H](CC(N)=O)NC(=O)[C@H](CO)NC(=O)[C@@H]1CCCN1C(=O)[C@@H](N)CS)C(=O)N[C@@H](CS)C(=O)N[C@@H](Cc1ccccc1)C(=O)N1CCC[C@H]1C(=O)N[C@@H](CC(C)C)C(=O)N[C@@H](CO)C(=O)N[C@@H](Cc1ccccc1)C(=O)N[C@@H](CCCNC(=N)N)C(=O)N[C@@H](CS)C(=O)N[C@@H](CC(=O)O)C(=O)NCC(=O)N[C@@H](CCC(=O)O)C(=O)N[C@@H](CC(N)=O)C(=O)N[C@@H](CC(=O)O)C(=O)N[C@@H](CS)C(=O)N[C@@H](CCC(=O)O)C(=O)N[C@@H](CC(=O)O)C(=O)NCC(=O)N[C@@H](CO)C(=O)N[C@@H](CC(=O)O)C(=O)N[C@@H](CCC(=O)O)C(=O)N[C@@H](CC(C)C)C(=O)N[C@@H](Cc1ccc(O)cc1)C(=O)N[C@@H](CS)C(=O)N1CCC[C@H]1C(=O)N[C@@H](CO)C(=O)N[C@@H](CCCNC(=N)N)C(=O)N[C@H](C(=O)O)[C@@H](C)O (H-CPSNEFMCPDKMCFPLSFRCDGENDCEDGSDELYCPSRT-OH)
- IC50 [1]: ≤ 1 nM
- IC50 [2]: ≤ 1 nM

Structure (SMILES): CSCC[C@H](NC(=O)[C@H](Cc1ccccc1)NC(=O)[C@H](CCC(=O)O)NC(=O)[C@H](Cc1ccc(O)cc1)NC(=O)[C@H](CO)NC(=O)[C@@H]1CCCN1C(=O)[C@@H](N)CS)C(=O)N[C@@H](CS)C(=O)N[C@@H](C)C(=O)N[C@@H](CC(=O)O)C(=O)N[C@@H](CCCCN)C(=O)N[C@@H](CCSC)C(=O)N[C@@H](CS)C(=O)N[C@@H](Cc1ccccc1)C(=O)N1CCC[C@H]1C(=O)N[C@@H](CC(C)C)C(=O)N[C@@H](CC(=O)O)C(=O)N[C@@H](Cc1ccccc1)C(=O)N[C@@H](CC(C)C)C(=O)N[C@@H](CS)C(=O)N[C@@H](CC(=O)O)C(=O)NCC(=O)N[C@@H](CCC(=O)O)C(=O)N[C@@H](CC(N)=O)C(=O)N[C@@H](CC(=O)O)C(=O)N[C@@H](CS)C(=O)N[C@@H](CCC(=O)O)C(=O)N[C@@H](CC(=O)O)C(=O)NCC(=O)N[C@@H](CO)C(=O)N[C@@H](CC(=O)O)C(=O)N[C@@H](CCC(=O)O)C(=O)N[C@@H](CC(=O)O)C(=O)N[C@@H](Cc1ccc(O)cc1)C(=O)N[C@@H](CS)C(=O)N1CCC[C@H]1C(=O)N[C@@H](CO)C(=O)N[C@@H](CCCNC(=N)N)C(=O)N[C@H](C(=O)O)[C@@H](C)O (H-CPSYEFMCADKMCFPLDFLCDGENDCEDGSDEDYCPSRT-OH)
- IC50 [1]: ≤ 1 nM
- IC50 [2]: ≤ 1 nM

Structure (SMILES): CSCC[C@H](NC(=O)[C@H](Cc1ccccc1)NC(=O)[C@H](CCC(=O)O)NC(=O)[C@H](Cc1ccc(O)cc1)NC(=O)[C@H](CO)NC(=O)[C@@H]1CCCN1C(=O)[C@@H](N)CS)C(=O)N[C@@H](CS)C(=O)N[C@@H](C)C(=O)N[C@@H](CC(=O)O)C(=O)N[C@@H](CCCCN)C(=O)N[C@@H](CCSC)C(=O)N[C@@H](CS)C(=O)N[C@@H](Cc1ccccc1)C(=O)N1CCC[C@H]1C(=O)N[C@@H](CC(C)C)C(=O)N[C@@H](CO)C(=O)N[C@@H](Cc1ccccc1)C(=O)N[C@@H](CC(C)C)C(=O)N[C@@H](CS)C(=O)N[C@@H](CC(=O)O)C(=O)NCC(=O)N[C@@H](CCC(=O)O)C(=O)N[C@@H](CC(N)=O)C(=O)N[C@@H](CC(=O)O)C(=O)N[C@@H](CS)C(=O)N[C@@H](CCC(=O)O)C(=O)N[C@@H](CC(=O)O)C(=O)NCC(=O)N[C@@H](CO)C(=O)N[C@@H](CC(=O)O)C(=O)N[C@@H](CCC(=O)O)C(=O)N[C@@H](CC(=O)O)C(=O)N[C@@H](Cc1ccc(O)cc1)C(=O)N[C@@H](CS)C(=O)N1CCC[C@H]1C(=O)N[C@@H](CO)C(=O)N[C@@H](CCCNC(=N)N)C(=O)N[C@H](C(=O)O)[C@@H](C)O (H-CPSYEFMCADKMCFPLSFLCDGENDCEDGSDEDYCPSRT-OH)
- IC50 [1]: ≤ 1 nM
- IC50 [2]: ≤ 1 nM

Structure (SMILES): CSCC[C@H](NC(=O)[C@@H]1CCCN1C(=O)[C@H](Cc1ccc(O)cc1)NC(=O)[C@H](CS)NC(=O)[C@H](Cc1cnc[nH]1)NC(=O)[C@H](CC(N)=O)NC(=O)[C@H](CCCNC(=N)N)NC(=O)[C@H](Cc1cnc[nH]1)NC(=O)[C@H](CCCNC(=N)N)NC(=O)[C@H](CS)NC(=O)[C@H](CCCCN)NC(=O)[C@H](Cc1ccccc1)NC(=O)[C@H](Cc1ccc(O)cc1)NC(=O)[C@H](CO)NC(=O)[C@@H](NC(=O)[C@@H]1CCCN1C(=O)[C@@H](N)CS)C(C)C)C(=O)N[C@@H](CCC(=O)O)C(=O)N[C@@H](Cc1c[nH]c2ccccc12)C(=O)N[C@@H](CCCNC(=N)N)C(=O)N[C@@H](CS)C(=O)N[C@@H](CC(=O)O)C(=O)NCC(=O)N[C@@H](Cc1ccccc1)C(=O)N1CCC[C@H]1C(=O)N[C@@H](CC(=O)O)C(=O)N[C@@H](CS)C(=O)N[C@@H](CC(=O)O)C(=O)N[C@@H](CC(=O)O)C(=O)NCC(=O)N[C@@H](CO)C(=O)N[C@@H](CC(=O)O)C(=O)N[C@@H](CCC(=O)O)C(=O)N[C@@H](CCCNC(=N)N)C(=O)NCC(=O)N[C@@H](CS)C(=O)N1CCC[C@H]1C(=O)N[C@@H](Cc1ccc(O)cc1)C(=O)N[C@@H](CCCNC(=N)N)C(=O)N[C@H](C(=O)O)[C@@H](C)O (H-CPVSYFKCRHRNHCYPMEWRCDGFPDCDDGSDERGCPYRT-OH)
- IC50 [1]: ≤ 1 nM
- IC50 [2]: ≤ 1 nM

Structure (SMILES): CSCC[C@H](NC(=O)[C@@H]1CCCN1C(=O)[C@H](Cc1ccc(O)cc1)NC(=O)[C@H](CS)NC(=O)[C@H](Cc1cnc[nH]1)NC(=O)[C@H](CC(N)=O)NC(=O)[C@H](CCCCN)NC(=O)[C@H](CC(N)=O)NC(=O)[C@H](CCCNC(=N)N)NC(=O)[C@H](CS)NC(=O)[C@H](CCCCN)NC(=O)[C@H](Cc1ccccc1)NC(=O)[C@H](Cc1ccc(O)cc1)NC(=O)[C@H](CO)NC(=O)[C@@H](NC(=O)[C@@H]1CCCN1C(=O)[C@@H](N)CS)C(C)C)C(=O)N[C@@H](CCC(=O)O)C(=O)N[C@@H](Cc1c[nH]c2ccccc12)C(=O)N[C@@H](CCCNC(=N)N)C(=O)N[C@@H](CS)C(=O)N[C@@H](CC(=O)O)C(=O)NCC(=O)N[C@@H](Cc1ccccc1)C(=O)N1CCC[C@H]1C(=O)N[C@@H](CC(=O)O)C(=O)N[C@@H](CS)C(=O)N[C@@H](CCC(=O)O)C(=O)N[C@@H](CC(=O)O)C(=O)NCC(=O)N[C@@H](CO)C(=O)N[C@@H](CC(=O)O)C(=O)N[C@@H](CCC(=O)O)C(=O)N[C@@H](CCCCN)C(=O)NCC(=O)N[C@@H](CS)C(=O)N1CCC[C@H]1C(=O)N[C@@H](Cc1ccc(O)cc1)C(=O)N[C@@H](CCCNC(=N)N)C(=O)N[C@H](C(=O)O)[C@@H](C)O (H-CPVSYFKCRNKNHCYPMEWRCDGFPDCEDGSDEKGCPYRT-OH)
- IC50 [1]: ≤ 1 nM
- IC50 [2]: ≤ 1 nM

Reference: ChEMBL document CHEMBL4417633, “Inhibitory polypeptides specific to WNT inhibitors” (2017)
